Test results from patent publication US20250186437A1, “CARBOLINE COMPOUNDS AND USE THEREOF” (PTC Therapeutics, Inc., priority 2021, published 2025).

How the values were obtained:
MOLM-13 cells [1] = assay: MOLM-13 Cell Proliferation Assay (indicator of DHODH inhibition); format: cell-based; conditions: Homo sapiens, 72 Hours of culture, CellTiter-Glo, no uridine
Procedure, shortened: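 Proliferation readout via CellTiter-Glo luminescence after 72 h compound treatment (37 °C, 5% CO2, 0.5% DMSO) of MOLM-13 cells seeded at 10^4 per well in RPMI 1640/10% FBS, used as a DHODH-inhibition indicator since these cells rely on de novo pyrimidine synthesis.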

MOLM-13 cells [2] = assay: MOLM-13 Uridine Rescue Assay; format: cell-based; conditions: Homo sapiens; MOLM-13 cell proliferation with 100 μM Uridine added, 72 Hours of culture
Procedure, shortened: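 MOLM-13 cells (passage <20) in RPMI 1640 + 10% FBS at 10^4 cells/well, treated with compound in 0.5% final DMSO for 72 h at 37 °C, 5% CO2. Viability by CellTiter-Glo luminescence. Rescue plates additionally received 100 μM uridine.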

SMILES | IC50 (MOLM-13 cells [1]) | IC50 (MOLM-13 cells [2])
N#Cc1cc(C#N)nc(N2CCc3c([nH]c4ccc(Cl)cc34)[C@@H]2c2cnc(N3CCOCC3)nc2)n1 [Compound 398, 2-{(1S)-6-chloro-1-[2-(morpholin-4-yl)pyrimidin-5-yl]-1,3,4,9-tetrahydro-2H-pyrido[3,4-b]indol-2-yl}pyrimidine-4,6-dicarbonitrile] | 10.6 nM | 720 nM
FC(F)(F)c1nc(N2CCc3c([nH]c4ccc(Cl)cc34)[C@@H]2c2ccc(N3CCOCC3)nc2)nc(C(F)(F)F)n1 [Compound 405, (1S)-2-[4,6-bis(trifluoromethyl)-1,3,5-triazin-2-yl]-6-chloro-1-[6-(morpholin-4-yl)pyridin-3-yl]-2,3,4,9-tetrahydro-1H-pyrido[3,4-b]indole] | 0.2 nM | 5880 nM
FC(F)(F)c1nc(N2CCc3c([nH]c4ccc(Cl)cc34)[C@@H]2c2cnc(N3CCOCC3)nc2)nc(C(F)(F)F)n1 [Compound 406, (1S)-2-[4,6-bis(trifluoromethyl)-1,3,5-triazin-2-yl]-6-chloro-1-[2-(morpholin-4-yl)pyrimidin-5-yl]-2,3,4,9-tetrahydro-1H-pyrido[3,4-b]indole] | 0.3 nM | 8350 nM
Cc1ccc([C@H]2c3[nH]c4ccc(Cl)cc4c3CCN2c2nc(C(F)(F)F)cc(C(F)(F)F)n2)c(F)c1F [Compound 407, (1S)-2-[4,6-bis(trifluoromethyl)pyrimidin-2-yl]-6-chloro-1-(2,3-difluoro-4-methylphenyl)-2,3,4,9-tetrahydro-1H-pyrido[3,4-b]indole] | 0.3 nM | 14700 nM
FC(F)(F)c1ccnc(N2CCc3c([nH]c4ccc(Cl)cc34)[C@@H]2c2cnc(N3CCOCC3)nc2)n1 [Compound 408, (1S)-6-chloro-1-[2-(morpholin-4-yl)pyrimidin-5-yl]-2-[4-(trifluoromethyl)pyrimidin-2-yl]-2,3,4,9-tetrahydro-1H-pyrido[3,4-b]indole] | 1.2 nM | 11000 nM
FC(F)(F)c1cc(C(F)(F)F)nc(N2CCc3c([nH]c4ccc(Cl)cc34)[C@@H]2c2ccc(N3CCOCC3)nc2)n1 [Compound 409, (1S)-2-[4,6-bis(trifluoromethyl)pyrimidin-2-yl]-6-chloro-1-[6-(morpholin-4-yl)pyridin-3-yl]-2,3,4,9-tetrahydro-1H-pyrido[3,4-b]indole] | 0.2 nM | 12600 nM
FC(F)(F)c1cc(C(F)(F)F)nc(N2CCc3c([nH]c4ccc(Cl)cc34)[C@@H]2c2cnc(N3CCOCC3)nc2)n1 [Compound 410, (1S)-2-[4,6-bis(trifluoromethyl)pyrimidin-2-yl]-6-chloro-1-[2-(morpholin-4-yl)pyrimidin-5-yl]-2,3,4,9-tetrahydro-1H-pyrido[3,4-b]indole] | 0.3 nM | 14200 nM
Cc1ccc([C@H]2c3[nH]c4ccc(Cl)cc4c3CCN2c2ncnc(C(F)(F)F)n2)cc1 [Compound 418, (1S)-6-chloro-1-(4-methylphenyl)-2-[4-(trifluoromethyl)-1,3,5-triazin-2-yl]-2,3,4,9-tetrahydro-1H-pyrido[3,4-b]indole] | 2 nM | 14900 nM
CN1CCN(c2ncc([C@H]3c4[nH]c5ccc(Cl)cc5c4CCN3c3nc(C(F)(F)F)cc(C(F)(F)F)n3)cn2)CC1 [Compound 419, (1S)-2-[4,6-bis(trifluoromethyl)pyrimidin-2-yl]-6-chloro-1-[2-(4-methylpiperazin-1-yl)pyrimidin-5-yl]-2,3,4,9-tetrahydro-1H-pyrido[3,4-b]indole] | 0.5 nM | 5640 nM
CN1CCN(c2ncc([C@H]3c4[nH]c5ccc(Cl)cc5c4CCN3c3nc(C(F)(F)F)nc(C(F)(F)F)n3)cn2)CC1 [Compound 420, (1S)-2-[4,6-bis(trifluoromethyl)-1,3,5-triazin-2-yl]-6-chloro-1-[2-(4-methylpiperazin-1-yl)pyrimidin-5-yl]-2,3,4,9-tetrahydro-1H-pyrido[3,4-b]indole] | 0.4 nM | 3120 nM
FC(F)(F)c1ncnc(N2CCc3c([nH]c4ccc(Cl)cc34)[C@@H]2c2cnc(N3CCOCC3)nc2)n1 [Compound 460, (1S)-6-chloro-1-[2-(morpholin-4-yl)pyrimidin-5-yl]-2-[4-(trifluoromethyl)-1,3,5-triazin-2-yl]-2,3,4,9-tetrahydro-1H-pyrido[3,4-b]indole] | 1.3 nM | 1160 nM
FC(F)(F)c1ncnc(N2CCc3c([nH]c4ccc(Cl)cc34)[C@@H]2c2ccc(N3CCOCC3)nc2)n1 [Compound 462, (1S)-6-chloro-1-[6-(morpholin-4-yl)pyridin-3-yl]-2-[4-(trifluoromethyl)-1,3,5-triazin-2-yl]-2,3,4,9-tetrahydro-1H-pyrido[3,4-b]indole] | 1.3 nM | 13600 nM
